Test results published in US5958952A, “Substituted phenylamindines, medicaments containing these compounds and process for producing them” (Dr. Karl Thomae GmbH, priority 1995, dated 1999).

Tests used:
human thrombocytes = assay: Inhibiting the binding of ^3 H-BIBU 52 to human thrombocytes; settings: human thrombocytes in plasma; ^3 H-BIBU 52 final concentration 5 nM; ambient temperature, 20 minutes; read-out: ^3 H-BIBU-52-binding test IC50
Experimental: 1. Inhibiting the Binding of ^3 H-BIBU 52 to Human Thrombocytes:
A suspension of human thrombocytes in plasma is incubated with ^3 H-BIBU 52 [=(3S,5S)-5-[(4'-amidino-4-biphenylyl)oxymethyl]-3-[(carboxy)methyl]-2-pyrrolidinone[3-^3 H-4-biphenylyl]], replacing the ligand ^125 I-fibrinogen known from the literature, (cf. DE-A-4,214.245) and various concentrations of the substance to be tested. The free and bound ligand is separated off by centrifuging and quantitatively determined by scintillation counting. From the results obtained, the inhibition of ^3 H-BIBU 52 binding by the test substance is determined.
In order to do this, donor blood is taken from an anticubital vein and anticoagulated with trisodium citrate (final concentration 13 mM). The blood is centrifuged for 10 minutes at 170×g and the supernatant platelet-rich plasma (PRP) is removed. The residual blood is sharply centrifuged off once more in order to obtain plasma. The PRP is diluted 1:10 with autologous plasma. 750 μl are incubated with 50 μl of physiological saline, 100 μl of test substance solution, 50 μl of ^14 C sucrose (3.700 Bq) and 50 μl of ^3 H-BIBU 52 (final concentration: 5 nM) at ambient temperature for 20 minutes. […] 100 μl of it are measured in order to determine the free ligand. The pellet is dissolved in 500 μl of 0.2N NaOH, 450 μl are mixed with 2 ml of scintillator and 25 μl of 5N HCl and measured. […]

thrombocyte aggregation = assay: Antithrombotic activity: inhibition of collagen-induced platelet (thrombocyte) aggregation in platelet-rich plasma; format: cell-based; settings: Homo sapiens, 10 min, platelet-rich plasma from healthy test subjects, incubated with substance at 37° C. for 10 minutes, 50% change in optical density
Experimental: 2. Antithrombotic Activity:
The thrombocyte aggregation is measured by the Born and Cross method (J. Physiol. 170, 397 (1964)) in platelet-rich plasma from healthy test subjects. To inhibit clotting, the blood is mixed with 3.14% sodium citrate in a ratio by volume of 1:10.
Collagen-Induced Aggregation
The progress of the decrease in optical density of the platelet suspension is measured photometrically after the addition of the aggregation-triggering substance and recorded. The rate of aggregation is calculated from the angle of inclination of the density curve. The point on the curve at which there is greatest light permeability is used to calculate the optical density.
The quantity of collagen is selected to be as small as possible but still sufficient to produce an irreversible reaction curve. The standard commercial collagen made by Hormonchemie of Munich is used.
Before the collagen is added, the plasma is incubated with the substance at 37° C. for 10 minutes.
From the measurements obtained, an EC50 was determined graphically corresponding to a 50% change in the optical density in terms of inhibiting aggregation.

Row | SMILES | IC50 (human thrombocytes) | EC50 (thrombocyte aggregation)
1 | N=C(N)c1ccc(NC(=O)CCN2CCC(CC(=O)O)CC2)cc1 [1(1), 1-[2-[(4-amidinophenyl)aminocarbonyl]ethyl]-4-carboxymethyl-piperidine] | 51 nM | 310 nM
2 | N=C(N)c1ccc(NC(=O)CCC2CCN(CC(=O)O)CC2)cc1 [Example 1, 4-[2-[(4-amidinophenyl)aminocarbonyl]ethyl]-1-carboxymethyl-piperidine] | 3.7 nM | 37 nM
